Data: publication PMC7824787, “Design, Synthesis and In Vitro Investigation of Novel Basic Celastrol Carboxamides as Bio-Inspired Leishmanicidal Agents Endowed with Inhibitory Activity against Leishmania Hsp90” (Biomolecules, 2021)
Read-outs that look alike come from different tables or passages of the source.

Assays:
[1] = system: L. infantum promastigotes; test: Antileishmanial activity on L. infantum promastigotes (MTT); format: cell-based
Experimental: (§1) Promastigote stage of L. infantum (MHOM/TN/80/IPT1, kindly provided by Dr. M. Gramiccia and Dr. T. Di Muccio, ISS, Roma) and L. tropica (MHOM/SY/2012/ISS3130) were cultured in RPMI 1640 medium (EuroClone) supplemented with 15% heat-inactivated fetal calf serum (EuroClone, Milan, Italy), 20 mM HEPES, and 2 mM L-glutamine at 23 °C. The MTT (3-[4.5-dimethylthiazol-2-yl]-2.5-diphenyltetrazolium bromide) method was used to estimate the 50% inhibitory concentration (IC50), with some modifications. Compounds were dissolved in DMSO and then diluted with medium to achieve the required concentrations. Test compounds were placed in 96 wells round bottom microplates and seven serial dilutions made. Amphotericin B was used as the reference antileishmanial drug. Parasites were diluted in complete medium to 5 × 10^6 parasites/mL and 100 μL of the suspension was seeded into the plates and incubated at 23 °C for 72 h. Then 20 μL of MTT solution (5 mg/mL) was added into each well, after 3 h the plates were centrifuged, the supernatants discarded and the resulting pellets dissolved in 100 μL of lysing buffer consisting of 20% (w/v) of a solution of SDS (Sigma), 40% of N,N-dimethylformamide (Merck) in H2O. The absorbance of the obtained solutions was measured at a wavelength of 550 nm with a reference at 650 nm with a microplate spectrophotometer (Synergy 4-Biotek, Milan, Italy) and analyzed with the Gen5® software for data processing.
(§2) The results are expressed as IC50, the dose of compound that is necessary to inhibit cell growth by 50%; each IC50 value is the mean ± standard deviation of at least three separate experiments performed in duplicate.

LbHsp90 = LbHsp90 (Leishmania braziliensis, UniProt A4HL70); test: In vitro inhibition of the ATPase activity of LbHsp90 (Malachite Green Phosphate Assay); format: biochemical; conditions: 7 μM LbHsp90, 27 °C, 60 min
Chain of LbHsp90 (A4HL70 entry or part of it): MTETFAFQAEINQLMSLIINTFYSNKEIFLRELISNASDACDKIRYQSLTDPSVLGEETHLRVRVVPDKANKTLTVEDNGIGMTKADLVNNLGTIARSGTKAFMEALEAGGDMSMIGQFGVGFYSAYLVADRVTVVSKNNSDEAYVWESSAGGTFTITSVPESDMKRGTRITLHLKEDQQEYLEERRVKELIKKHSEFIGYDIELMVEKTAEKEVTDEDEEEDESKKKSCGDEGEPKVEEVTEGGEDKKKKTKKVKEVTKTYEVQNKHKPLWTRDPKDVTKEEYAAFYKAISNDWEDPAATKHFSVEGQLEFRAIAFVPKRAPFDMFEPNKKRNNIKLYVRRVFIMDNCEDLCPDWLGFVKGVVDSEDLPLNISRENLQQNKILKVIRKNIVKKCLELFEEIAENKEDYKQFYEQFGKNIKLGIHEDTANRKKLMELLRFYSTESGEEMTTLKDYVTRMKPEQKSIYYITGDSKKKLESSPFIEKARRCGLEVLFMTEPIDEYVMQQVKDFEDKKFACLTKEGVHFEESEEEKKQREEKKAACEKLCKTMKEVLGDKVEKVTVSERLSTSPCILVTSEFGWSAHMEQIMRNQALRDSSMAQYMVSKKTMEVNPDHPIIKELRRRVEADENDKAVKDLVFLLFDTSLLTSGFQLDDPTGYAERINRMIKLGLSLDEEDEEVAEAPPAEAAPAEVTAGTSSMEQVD
Description: To evaluate in vitro the modulatory activity of CE, PR and CE caboxamides, a full-length recombinant Hsp90 from L. braziliensis (LbHsp90) was produced in E. coli BL21 DE3 harboring the pET28a_LbHsp90 coding for the C-terminal His-tagged target chaperone (genbank number: XP_001567804.1, full sequence is reported in Appendix B). Pratically, the plasmid pET28a_LbHsp90, kindly donated by professor J.C. Borges, was transformed in E. coli BL21 DE3 using the TransformAid Bacterial Transformation Kit (Thermo Fisher, Waltham, MA, USA). Subsequently, the obtained transformants were grown overnight in LB medium containing 30 μg mL^−1 kanamycin (LBkan30) and then inoculated in 1 L SB kan30 medium (Yeast extract 30 g L^−1, Tryptone 20 g L^−1, NaCl 10 g L^−1) at 37 °C and 220 rpm. When the OD600 reached 0.5–1, gene expression was induced by the addition of 2 mL of 1 M IPTG solution in water and the culture was shifted at 30 °C for 24 h. After cell harvesting by centrifugation (5000 rpm for 30 min), the cell pellet was resuspended in 20 mL of wash buffer (20 mM HEPES buffer, pH 7.0, 500 mM NaCl, 20 mM imidazole) and recombinant E. coli BL21DE3 cells were disrupted by ultrasonication. LbHsp90 was subsequently purified using a Nickel Sepharose 6 Fast Flow agarose resin (Ni-NTA) (GE Healthcare, Milan, Italy) as follows. Soluble protein fraction was separated from cell debris by centrifugation (10,000 rpm for 30min) after cell ultrasonication, and clear lysates were incubated with the Ni-NTA resin for 90 min at 4 °C under mild shaking and loaded onto a glass column (10 × 110 mm). The resin was then washed with 10mL of wash buffer and His-tagged LbHsp90 was eluted using a 3 step gradient (10 mL washing buffer containing 100, 200, and 300 mM imidazole, respectively) and dialyzed against 20 mM HEPES buffer (20 mM, pH 7.5), at 4 °C overnight. The protein content was measured using the Bio-Rad Protein Assay (Hercules, CA, USA) according to the Bradford method and the protein purity was verified by SDS-PAGE analysis (10% T, 2.6% C). It is worth noting that to avoid interferences with the assays described below, proteins were purified and conserved in HEPES buffer (20 mM, pH 7.5) in place of the standard PB-buffer. Reported data are the mean of two experiments run in duplicate.
Modulatory activity toward the ATPase cycle of LbHsp90 was determined using a Malachite Green Phosphate Assay Kit (Catalog Number MAK307, Sigma-Aldrich®, St. Louis, MO, USA). Analyses were run in a 96-well plate directly following the quantitative formation of a green complex between Malachite Green, molybdate, and free orthophosphate (Pi) produced by ATP hydrolysis catalyzed by the chaperone. Color formation from the reaction was measured on a plate reader at 620 nm. Briefly, the IC50 of CE and its derivatives were extrapolated from a set of dose-response curves obtained by calculating the amount of Pi produced by LbHsp90 in the presence of different compounds concentrations.
Reactions were run in HEPES buffer (20 mM, pH 7.5) containing 3 mM MgCl2 and 50 mM KCl in the presence of different compounds concentrations ([…]), LbHsp90 (7 μM) and ATP (25 mM) at 27 °C for 60 min. OD620 was measured 30 min after Malachite Green reactants addition.
LbHsp90 native activity was measured by conducting the reaction in the presence of just LbHsp90 and ATP and extrapolating the concentration of Pi obtained.
Three sets of control experiments, (1) ATP background hydrolysis, (2) compounds-related interferences and (3) protein-related background coloration, were run as follow: • (1) ATP (25 mM) incubated at 27 °C for 60 min • (2) Compounds (different concentrations) incubated with ATP (25 mM) at 27 °C for 60 min • (3) LbHsp90 (7 μM) at 27 °C for 60 min
The in vitro performances of CE, PR and the carboxamides 1–11 (Figure 4) as potential inhibitors of the Leishmania braziliensis Hsp90 were investigated using Sigma-Aldrich® Malachite Green Phosphate Assay Kit. […]

L. tropica promastigotes = test: Antileishmanial activity on L. tropica promastigotes (MTT); format: cell-based
Experimental: as §1, §2

THP-1 = test: Cytotoxicity on THP-1 (MTT); format: cell-based, human; conditions: read-out: Healthy Cell Lines IC50, THP-1
Experimental: (§3) Cytotoxicity was evaluated on human microvascular endothelial cells (HMEC-1, provided by the Centers for Disease Control, Atlanta, GA, USA), on immortalized mouse C57Bl/6 bone marrow derived macrophages (BMDM) from wild type lineage (generated in the laboratories of Drs. Douglas Golenbock and Kate Fitzgerald, University of Massachusetts, Worcester, MA, USA) and on a human acute monocytic leukaemia cell line (THP-1).
(§4) HMEC-1 were maintained in MCDB 131 medium (Invitrogen, Milan, Italy) supplemented with 10% fetal calf serum (HyClone), 10 ng/mL of epidermal growth factor, 1 μg/mL of hydrocortisone, 2 mM glutamine and 20 mM HEPES buffer, at 37 °C in 5% CO2. BMDM were maintained in DMEM (Euroclone) medium supplemented with 10% fetal bovine serum (HyClone, Celbio, Milan, Italy), 2 mM glutamine, and 25 mM of HEPES buffer solution (Euroclone). THP-1 were maintained in RPMI supplemented with 10% heat-inactivated FCS, 50 µM 2-mercaptoethanol, 10 µM sodium pyruvate, 20 mM HEPES, and 2 mM glutamine. In order to achieve differentiation into macrophages, cells were treated with 10 ng/mL phorbol myristate acetate (PMA) for 72 h.
(§5) For the cytotoxicity assay, cells were seeded in 96 well flat bottom tissue culture clusters (Costar, New York, NY, USA) at the following concentrations: HMEC 10^5 cell/mL, BMDM at 10^6 cell/mL, THP1 at 5 × 10^5 cell/mL. After 24 h, cells were treated with serial dilutions of test compounds in a final volume of 200 µL/well. Cell proliferation was evaluated after 72 h using the MTT assay.
(§6) The absorbances were measured with a microplate spectrophotometer (Synergy 4-Biotek) at a test wavelength of 550 nm and a reference wavelength of 650 nm. The results are expressed as IC50 as the concentration inhibiting 50% of cell growth. Each IC50 value is the mean and standard deviation of at least three separate experiments performed in duplicate.

BMDM = test: Cytotoxicity on BMDM (MTT); format: cell-based, mouse; conditions: 72 h, read-out: Healthy Cell Lines IC50, BMDM
Experimental: as §3, §4, §5, §6

HMEC-1 = test: Cytotoxicity on HMEC-1 (MTT); format: cell-based, human; conditions: read-out: Healthy Cell Lines IC50, HMEC-1
Experimental: as §3, §4, §5, §6

[2] = Leishmania infantum; 72 h, 23 °C, MTT; read-out: Leishmania Promastigotes IC50, L. infantum
[3] = Leishmania tropica; 72 h, 23 °C, MTT; read-out: Leishmania Promastigotes IC50, L. tropica
[4] = Homo sapiens, THP-1, PMA-differentiated, 72 h, MTT
[5] = Leishmania tropica, 72 h, 23 °C, MTT, read-out: Leishmania Promastigotes IC50, L. tropica
[6] = Homo sapiens, HMEC-1, 72 h, MTT
[7] = 72 h, 23 °C, MTT; read-out: Leishmania Promastigotes IC50, L. tropica

Compound	IC50 [1, 2] [nM]	IC50 (LbHsp90) [nM]	IC50 (L. tropica promastigotes; [3]) [nM]	IC50 (THP-1; [4]) [nM]	melting point [°C]	IC50 (BMDM; Mus musculus, BMDM, MTT) [nM]	IC50 (L. tropica promastigotes; [5]) [nM]	IC50 (HMEC-1; [6]) [nM]	IC50 (L. tropica promastigotes; [7]) [nM]	other results
CC1=C(O)C(=O)C=C2C1=CC=C1[C@@]2(C)CC[C@@]2(C)[C@@H]3C[C@](C)(C(=O)NCCCN4CCCCC4)CC[C@]3(C)CC[C@]12C [compound 2, (2R,4aS,6aS,12bR,14aS,14bR)-10-hydroxy-2,4a,6a,9,12b,14a-hexamethyl-11-oxo-N-(3-(piperidin-1-yl)propyl)-1,2,3,4,4a,5,6,6a,11,12b,13,14,14a,14b-tetradecahydropicene-2-carboxamide]	260 ± 60	> 125000	210 ± 40	1780 ± 480	–	–	–	–	–	–
COC(=O)[C@]1(C)CC[C@]2(C)CC[C@]3(C)C4=CC=C5C(=CC(=O)C(O)=C5C)[C@]4(C)CC[C@@]3(C)[C@@H]2C1 [PR, pristimerin, reference compound]	–	–	–	–	–	–	–	–	–	IC50 ([1]; Leishmania infantum, 72 h, read-out: Leishmania Promastigotes IC50, L. infantum): 260 ± 20 nM; IC50 (BMDM; Mus musculus, BMDM): 1270 ± 90 nM; IC50 (L. tropica promastigotes; Leishmania tropica, 72 h, read-out: Leishmania Promastigotes IC50, L. tropica): 240 ± 40 nM; IC50 (THP-1; Homo sapiens, THP-1, 72 h): 1100 ± 350 nM
C=CCSSCCNC(=O)[C@]1(C)CC[C@]2(C)CC[C@]3(C)C4=CC=C5C(=CC(=O)C(O)=C5C)[C@]4(C)CC[C@@]3(C)[C@@H]2C1 [compound 10, (2R,4aS,6aS,12bR,14aS,14bR)-N-(2-(allyldisulfanyl)ethyl)-10-hydroxy-2,4a,6a,9,12b,14a-hexamethyl-11-oxo-1,2,3,4,4a,5,6,6a,11,12b,13,14,14a,14b-tetradecahydropicene-2-carboxamide]	460 ± 120	> 125000	340 ± 210	930 ± 270	173.7 to 175.1	2860 ± 170	–	–	–	IC50 (HMEC-1; Homo sapiens, HMEC-1, 72 h): 170 ± 40 nM
CC1=C(O)C(=O)C=C2C1=CC=C1[C@@]2(C)CC[C@@]2(C)[C@@H]3C[C@](C)(C(=O)NCCC45CCCN4CCC5)CC[C@]3(C)CC[C@]12C [compound 4, (2R,4aS,6aS,12bR,14aS,14bR)-N-(2-(hexahydro-1H-pyrrolizin-7a-yl)ethyl)-10-hydroxy-2,4a,6a,9,12b,14a-hexamethyl-11-oxo-1,2,3,4,4a,5,6,6a,11,12b,13,14,14a,14b-tetradecahydropicene-2-carboxamide]	–	48000 ± 3000	–	1890 ± 430	235.7 to 237	2590 ± 710	200 ± 40	350 ± 160	–	IC50 ([1]; Leishmania infantum, 72 h, 23 °C, MTT, read-out: Leishmania Promastigotes IC50, L. infantum): 250 ± 80 nM
(6bS,8aS,11R,12aR,12bS,14aR)-3-hydroxy-4,6b,8a,11,12b,14a-hexamethyl-11-(((((2R,3R,4R,5S,6R)-2,4,5-trihydroxy-6-(hydroxymethyl)tetrahydro-2H-pyran-3-yl)amino)oxy)carbonyl)-7,8,8a,9,10,11,12,12a,12b,13,14,14a-dodecahydropicen-2(6bH)-one [compound 11]	–	47000 ± 5000	–	–	–	–	–	–	15200 ± 2710	IC50 ([1]; 72 h, 23 °C, MTT; read-out: Leishmania Promastigotes IC50, L. infantum): 14400 ± 1960 nM; IC50 (BMDM; MTT): > 15900 nM; IC50 (HMEC-1; 72 h, MTT): > 14200 nM; IC50 (THP-1; PMA-differentiated, 72 h, MTT): > 15900 nM
CC1=C(O)C(=O)C=C2C1=CC=C1[C@@]2(C)CC[C@@]2(C)[C@@H]3C[C@](C)(C(=O)NCSS(C)(=O)=O)CC[C@]3(C)CC[C@]12C [compound 8, S-(((2R,4aS,6aS,12bR,14aS,14bR)-10-hydroxy-2,4a,6a,9,12b,14a-hexamethyl-11-oxo-1,2,3,4,4a,5,6,6a,11,12b,13,14,14a,14b-tetradecahydropicene-2-carboxamido)methyl) methanesulfonothioate]	–	67000 ± 3000	–	2510 ± 870	–	13900 ± 2780	2000 to 4000	3030 ± 10	3440 ± 1120	–
